Square brackets hold non-standard residues; d marks the D form. Ends that are not written are not given here. Peptide text beside a SMILES is read from it. * marks the point of attachment. hArg = N=C(N)NCCCC[C@H](N)C(=O)O; Octanoyl = CCCCCCCC(=O)*

The text below walks through data of US5654274A, “Biologically active peptides having N-terminal substitutions” (priority 1995, dated 1997).

Biological target in the first experiment: not listed separately
The experiment in a line: Inhibition of lipopolysaccharide binding to dye (LPS50). Set-up: species or system E. coli. The settings on record: concentration of peptide necessary to inhibit the binding of 50% of the lipopolysaccharide to the dye; absorbance at 460 nm and 510 nm. As for the experimental part: A stock solution (10×) of 0.6 mM dye is prepared by adding 1.68 mg of (1-ethyl-2-(3-[1-ethylnaphthol(1,2-d)- thiazolin-2-ylidene]-2-methylpropenyl)naphtho-(1,2-d)-thiazolium bromide (Signa E-7762) to 5 ml of 200 proof ethanol. 1 ml of this solution was added to 9 ml ethanol to give 0.06 mM of dye (60 μM dye).
A stock solution of lipopolysaccharide (LPS) from E. coli serotype 0111:B4 was prepared at 1.5 mg/ml. 400 μl of this solution was mixed with 4.6 ml pyrogen free water to give a 120 μg/ml solution.
Row 1 and rows 3 through 12 of a microtiter plate were filled with 100 μl of pyrogen free water or with 10 mg/ml of bovine serum albumin. 200 μl of peptide then is added to row 2 of the microtiter plate at a concentration of […]. 200 μl of pyrogen free water is added to each of the control wells in two lanes (having dye and LPS but no peptide or having dye and no LPS and no peptide). 100 μl then is serially diluted from row 2 through row 12 of the microtiter plate. 50 μl of PBS (pH 7.4) and 50 μl of the LPS solution then are added to row 1 of the plate (blank wells).
Equal volumes of the LPS solution, the dye, and PBS (pH 7.4, approx. 150 mM) are mixed to form a dye-buffer--LPS mixture having LPS at a final concentration of 40 μg/mi and dye at a final concentration of 20 μM. The dye-buffer LPS mixture then is incubated for 10 minutes at room temperature in the dark.
The plate is incubated for 10 minutes at room temperature in the dark, and the absorbance at 460 nm and 510 nm is read. From these absorbances, the LPS50 value, which is the concentration in mg/ml of peptide necessary to inhibit the binding of 50% of the lipopolysaccharide to the dye, is calculated.
As for `CCCCCCCC(=O)N[C@@H](CC(C)C)C(=O)N[C@@H](CCCCN)C(=O)N[C@@H](CCCCN)C(=O)N[C@@H](CC(C)C)C(=O)N[C@@H](CC(C)C)C(=O)N[C@@H](CCCCN)C(=O)N[C@@H](CCCCN)C(=O)N[C@@H](CC(C)C)C(=O)N[C@@H](CCCCN)C(=O)N[C@@H](CCCCN)C(=O)N[C@@H](CC(C)C)C(N)=O` [Oct-(SEQ ID NO: 110)-NH2] (Octanoyl-LKKLLKKLKKL-NH2), the LPS50 came out at 0.84 µg/mL. The same measure, in the same setting: with `CCCCCCCC(=O)N[C@@H](CC(C)C)C(=O)N[C@@H](CCCCN)C(=O)N[C@@H](CCCCN)C(=O)N[C@@H](CC(C)C)C(=O)N[C@@H](CC(C)C)C(=O)N[C@@H](CCCCN)C(=O)N[C@@H](CC(C)C)C(=O)N[C@@H](CC(C)C)C(=O)N[C@@H](CCCCN)C(N)=O` [Oct-(SEQ ID NO: 138)-NH2] (Octanoyl-LKKLLKLLK-NH2) the figure was 1.00 µg/mL; with `CCCCCCCC(=O)N[C@@H](CC(C)C)C(=O)N[C@@H](CCCCN)C(=O)N[C@@H](CCCCN)C(=O)N[C@@H](CC(C)C)C(=O)N[C@@H](CCCCN)C(=O)N[C@@H](CCCCN)C(=O)N[C@@H](CC(C)C)C(N)=O` [Oct-(SEQ ID NO: 106)-NH2] (Octanoyl-LKKLKKL-NH2), 6.80 µg/mL; with “Oct-D-(SEQ ID NO:110)-NH2 -melibionic acid: Oct-D-(SEQ ID NO:110)-NH2 with melibionic acid, not further explained (Octanoyl-LKKLLKKLKKL-NH2; not fully specified (some residues); also: melibionic acid, not further explained)”, 45.00 µg/mL. Same read-out and setting: in the case of `CCCCCCCC(=O)N[C@@H](CCCCN)C(=O)N[C@@H](Cc1ccccc1)C(=O)N[C@@H](C)C(=O)N[C@@H](CCCCN)C(=O)N[C@@H](Cc1ccccc1)C(=O)N[C@@H](C)C(=O)N[C@@H](CCCCN)C(=O)N[C@@H](CCCCN)C(=O)N[C@@H](Cc1ccccc1)C(=O)N[C@@H](C)C(N)=O` [Oct-(SEQ ID NO: 121)-NH2] (Octanoyl-KFAKFAKKFA-NH2) it was 20.00 µg/mL; in that of `CCCCCCCC(=O)N[C@@H](CCCCN)C(=O)N[C@@H](CCCCN)C(=O)N[C@@H](CC(C)C)C(=O)N[C@@H](C)C(=O)N[C@@H](CCCCN)C(=O)N[C@@H](CC(C)C)C(=O)N[C@@H](C)C(=O)N[C@@H](CCCCN)C(=O)N[C@@H](CCCCN)C(=O)N[C@@H](CC(C)C)C(=O)N[C@@H](C)C(N)=O` [Oct-(SEQ ID NO: 123)-NH2] (Octanoyl-KKLAKLAKKLA-NH2), 1.70 µg/mL. On the same count and under the same terms, in the case of `CCCCCCCC(=O)N[C@@H](CCCCN)C(=O)N[C@@H](CCCCN)C(=O)N[C@@H](CC(C)C)C(=O)N[C@@H](CC(C)C)C(=O)N[C@@H](CCCCN)C(=O)N[C@@H](CCCCN)C(=O)N[C@@H](CC(C)C)C(=O)N[C@@H](CCCCN)C(=O)N[C@@H](CCCCN)C(=O)N[C@@H](CC(C)C)C(N)=O` [Oct-(SEQ ID NO: 109)-NH2] (Octanoyl-KKLLKKLKKL-NH2) it was 0.60 µg/mL; in that of `CCCCCCCC(=O)N[C@@H](C)C(=O)N[C@@H](CCCCN)C(=O)N[C@@H](CCCCN)C(=O)N[C@@H](CC(C)C)C(=O)N[C@@H](CC(C)C)C(=O)N[C@@H](CCCCN)C(=O)N[C@@H](CCCCN)C(=O)N[C@@H](CC(C)C)C(=O)N[C@@H](CCCCN)C(=O)N[C@@H](CCCCN)C(=O)N[C@@H](CC(C)C)C(N)=O` [Oct-(SEQ ID NO: 111)-NH2] (Octanoyl-AKKLLKKLKKL-NH2), 1.00 µg/mL.

The next experiment has as its system P. gingivalis. Kind of experiment: Anaerobic antimicrobial susceptibility test (NCCLS M11-T2), P. gingivalis. It is filed as cell-based. The settings on record: strain W50, BHI broth, 24-48 hours.
For `CCCCCCCC(=O)N[C@@H](CCCCNC(=N)N)C(=O)N[C@H](C(=O)N[C@@H](C)C(=O)NCC(=O)N[C@@H](CCCCNC(=N)N)C(=O)N[C@H](C(=O)N[C@@H](C)C(=O)N[C@@H](CCCCNC(=N)N)C(=O)N[C@H](C(=O)N[C@@H](C)C(=O)NCC(=O)N[C@@H](CCCCNC(=N)N)C(=O)N[C@H](C(=O)N[C@@H](C)C(=O)N[C@@H](CCCCNC(=N)N)C(=O)N[C@H](C(=O)N[C@@H](C)C(=O)NCC(=O)N[C@@H](CCCCNC(=N)N)C(=O)N[C@H](C(=O)N[C@@H](C)C(N)=O)[C@@H](C)CC)[C@@H](C)CC)[C@@H](C)CC)[C@@H](C)CC)[C@@H](C)CC)[C@@H](C)CC` [Oct-(SEQ ID NO: 66)-NH2] (Octanoyl-[hArg]IAG[hArg]IA[hArg]IAG[hArg]IA[hArg]IAG[hArg]IA-NH2), the “MIC P. gingivalis (strain) W50” value came out at 2 μl/ml. In the case of `CCCCCCCC(=O)N[C@@H](CCCCN)C(=O)N[C@H](C(=O)N[C@@H](C)C(=O)N[C@@H](CCCCN)C(=O)N[C@@H](CCCCN)C(=O)N[C@H](C(=O)N[C@@H](C)C(=O)N[C@@H](CCCCN)C(=O)N[C@H](C(=O)N[C@@H](C)C(=O)N[C@@H](CCCCN)C(=O)N[C@@H](CCCCN)C(=O)N[C@H](C(=O)N[C@@H](C)C(=O)N[C@@H](CCCCN)C(=O)N[C@H](C(=O)N[C@@H](C)C(=O)N[C@@H](CCCCN)C(=O)N[C@@H](CCCCN)C(=O)N[C@H](C(=O)N[C@@H](C)C(=O)O)[C@@H](C)CC)[C@@H](C)CC)[C@@H](C)CC)[C@@H](C)CC)[C@@H](C)CC)[C@@H](C)CC` [Oct-(SEQ ID NO: 86)-OH] (Octanoyl-KIAKKIAKIAKKIAKIAKKIA-OH), the “MIC P. gingivalis (strain) W50” value was determined as 1 μl/ml. Still for that read-out and setting: with “KIAGKIAKIAGKIAKIAGKIA-NH2 [(SEQ ID NO: 27)-NH2]” the figure was 4 μl/ml.

For `CCCCCCCC(=O)N[C@@H](CCCCN)C(=O)N[C@H](C(=O)N[C@@H](C)C(=O)NCC(=O)N[C@@H](CCCCN)C(=O)N[C@H](C(=O)N[C@@H](C)C(=O)N[C@@H](CCCCN)C(=O)N[C@H](C(=O)N[C@@H](C)C(=O)NCC(=O)N[C@@H](CCCCN)C(=O)N[C@H](C(=O)N[C@@H](C)C(=O)N[C@@H](CCCCN)C(=O)N[C@H](C(=O)N[C@@H](C)C(=O)NCC(=O)N[C@@H](CCCCN)C(=O)N[C@H](C(=O)N[C@@H](C)C(=O)O)[C@@H](C)CC)[C@@H](C)CC)[C@@H](C)CC)[C@@H](C)CC)[C@@H](C)CC)[C@@H](C)CC` [Oct-(SEQ ID NO: 27)-OH] (Octanoyl-KIAGKIAKIAGKIAKIAGKIA-OH), the “MIC P. gingivalis (strain) W50” value was found to be 1 μl/ml. As to `CCCCCCCC(=O)N[C@@H](CCCCN)C(=O)N[C@H](C(=O)N[C@@H](C)C(=O)NCC(=O)N[C@@H](CCCCN)C(=O)N[C@H](C(=O)N[C@@H](C)C(=O)N[C@@H](CCCCN)C(=O)N[C@H](C(=O)N[C@@H](C)C(=O)NCC(=O)N[C@@H](CCCCN)C(=O)N[C@H](C(=O)N[C@@H](C)C(=O)N[C@@H](CCCCN)C(=O)N[C@H](C(=O)N[C@@H](C)C(=O)NCC(=O)N[C@@H](CCCCN)C(=O)N[C@H](C(=O)N[C@@H](C)C(N)=O)[C@@H](C)CC)[C@@H](C)CC)[C@@H](C)CC)[C@@H](C)CC)[C@@H](C)CC)[C@@H](C)CC` [Oct-(SEQ ID NO: 27)-NH2] (Octanoyl-KIAGKIAKIAGKIAKIAGKIA-NH2), the “MIC P. gingivalis (strain) W50” value turned out to be 16 μl/ml. Same read-out and setting: with `CC[C@H](C)[C@H](NC(=O)[C@H](CCCCNC(=N)N)NC(=O)CNC(=O)[C@H](C)NC(=O)[C@@H](NC(=O)[C@H](CCCCNC(=N)N)NC(=O)[C@H](C)NC(=O)[C@@H](NC(=O)[C@H](CCCCNC(=N)N)NC(=O)CNC(=O)[C@H](C)NC(=O)[C@@H](NC(=O)[C@H](CCCCNC(=N)N)NC(=O)[C@H](C)NC(=O)[C@@H](NC(=O)[C@H](CCCCNC(=N)N)NC(=O)CNC(=O)[C@H](C)NC(=O)[C@@H](NC(=O)[C@@H](N)CCCCNC(=N)N)[C@@H](C)CC)[C@@H](C)CC)[C@@H](C)CC)[C@@H](C)CC)[C@@H](C)CC)C(=O)N[C@@H](C)C(N)=O` [(SEQ ID NO: 66)-NH2] (H-[hArg]IAG[hArg]IA[hArg]IAG[hArg]IA[hArg]IAG[hArg]IA-NH2) the figure was 4 μl/ml.
